The source of these data is patent US20200206200A1, “PROPHYLACTIC AND/OR THERAPEUTIC AGENT CONTAINING PYRIDYLAMINOACETIC ACID COMPOUND” (priority 2015, published 2020).

“Also recorded” adds a separate entry of the source. A value given as a limit tells only on which side of the number the result lay.

For the experiment, the system named is ocular hypertensive monkeys. Put plainly: Intraocular pressure-lowering effect in laser-induced ocular hypertensive monkeys. The class given is in vivo, Macaca fascicularis. The conditions noted are these: 0.01 w/v% solution. On the procedure:
To investigate the usefulness of the present compound A, an intraocular pressure-lowering effect of the present compound A was tested in experimental animals (ocular hypertensive monkeys). Regarding test solutions, a reference solution not containing the present compound A was used as a control, a solution containing the present compound A was prepared as Example 1 of the invention of the present application, and a latanoprost eye drop was prepared as Comparative Example 1, as shown below.
To 1.7 g of polyoxyl 35 castor oil, 10 mL of a 0.5% (w/v) disodium edetate/10% (w/v) glycerin solution, 1 mL of a 1% (w/v) benzalkonium chloride solution, 30 mL of purified water, and 50 mL of a 2% (w/v) boric acid/0.2% (w/v) sorbic acid solution were added and dissolved therein. […]
(2) The intraocular pressure was measured immediately before instillation of one of the test solutions (the above-described control, Example 1, and Comparative Example 1), and employed as the initial intraocular pressure. […]
(4) After 2 hours, 4 hours, and 6 hours had passed from the instillation of the test solution, one drop of the 0.4% oxybuprocaine hydrochloride eye drop was instilled for local anesthesia to the eye whose intraocular pressure was to be measured, and then the intraocular pressure was measured. In addition, the intraocular pressure was measured three times, and the average value was shown in the results. […]

In the case of `CC(C)OC(=O)CNc1cccc(CN(Cc2ccc(-n3cccn3)cc2)S(=O)(=O)c2cccnc2)n1` [present compound A, isopropyl (6-{ [4-(pyrazol-1-yl)benzyl] (pyridin-3-ylsulfonyl)aminomethyl}pyridin-2-ylamino)acetate], the “intraocular pressure-lowering activity (in words)” value was “larger than that in the latanoprost-treated group; also recorded: rapidly provided an excellent intraocular pressure-lowering effect” and the “time after administration by which excellent intraocular pressure-lowering activity was exhibited” value is at most 2 h.
